Laboratory results: patent publication US11787799B2 (priority 2015, dated 2023)
Several values for one entry are separate records, joined by “and”; a condition that tells them apart may be missing. Equal entries are not always repeated.

Key:
Poliovirus 1 = test: microbe, parasite or virus in culture; assay type: cell-based; settings: read-out: EC50 PV1
Coxsackievirus B4 = test: microbe, parasite or virus in culture; assay type: cell-based; settings: read-out: EC50 CVB4
Coxsackievirus B3-H3 = test: microbe, parasite or virus in culture; assay type: cell-based; settings: read-out: EC50 CVB3-H3
Coxsackievirus A9 = test: microbe, parasite or virus in culture; assay type: cell-based; settings: read-out: EC50 COX A9
[1] = tested on: Enterovirus D68/US/KY/14-18953; test: Antiviral assay, Enterovirus D68 strain US/KY/14-18953 in RD cells; assay type: cell-based
[2] = tested on: Enterovirus D68/US/Mo/14-18949; test: Antiviral assay, Enterovirus D68 strain US/Mo/14-18949 in RD cells; assay type: cell-based
Enterovirus 71 = test: microbe, parasite or virus in culture; assay type: cell-based; settings: read-out: EC50 EV71
Coxsackievirus B1 = test: microbe, parasite or virus in culture; assay type: cell-based; settings: read-out: EC50 CVB1
Coxsackievirus B2 = test: microbe, parasite or virus in culture; assay type: cell-based; settings: read-out: EC50 CVB2
Coxsackievirus B5 = test: microbe, parasite or virus in culture; assay type: cell-based; settings: read-out: EC50 CVB5
Enterovirus D68/Fermon = test: Antiviral assay, Enterovirus D68 strain Fermon in RD cells; assay type: cell-based
Echovirus 6 = test: microbe, parasite or virus in culture; assay type: cell-based; settings: read-out: EC50 ECHO06
Poliovirus 3 = test: microbe, parasite or virus in culture; assay type: cell-based; settings: read-out: EC50 PV3
Echovirus 11 = test: microbe, parasite or virus in culture; assay type: cell-based; settings: read-out: EC50 ECHO11
Echovirus 9 = test: microbe, parasite or virus in culture; assay type: cell-based; settings: read-out: EC50 ECHO09
Echovirus 7 = test: microbe, parasite or virus in culture; assay type: cell-based; settings: read-out: EC50 ECHO07

SMILES | EC50 (Poliovirus 1) | EC50 (Coxsackievirus B4) | EC50 (Coxsackievirus B3-H3) | EC50 (Coxsackievirus A9) | EC50 [1] | EC50 [2] | CC50 (LLC cells) | EC50 (Enterovirus 71) | EC50 (Coxsackievirus B1) | CC50 (HeLa-RW cells) | EC50 (Coxsackievirus B2) | EC50 (Coxsackievirus B5) | CC50 (RD cells) | EC50 (Enterovirus D68/Fermon) | EC50 (Echovirus 6) | EC50 (Poliovirus 3) | EC50 (Echovirus 11) | EC50 (Echovirus 9) | EC50 (Echovirus 7)
CC(C)n1ncc2c(C(=O)N3CCc4cc(F)ccc43)cc(-c3cccs3)nc21 [JX-048] | > 10000 nM | 1200 nM | 1500 nM | 1200 nM | 4100 ± 1200 nM | 2100 ± 600 nM | > 200000 nM | 1300 ± 200 nM | 1500 nM | 20000 nM | 1500 nM | 1200 nM | > 200000 nM | 2800 ± 450 nM | 1100 nM | > 10000 nM | – | – | –
CC(C)n1ncc2c(C(=O)Nc3ccccn3)cc(-c3ccsc3)nc21 [JX-057] | > 10000 nM | 1200 nM | 1200 nM | – | – | – | 25000 nM | 800 nM | 1200 nM | 18000 nM | 1200 nM | 1200 nM | – | – | – | > 10000 nM | 1200 nM | 400 nM | –
CC(C)n1ncc2c(C(=O)Nc3ncccn3)cc(-c3ccsc3)nc21 [JX-058] | > 10000 nM | 1200 nM | 1200 nM | – | – | – | 50000 nM | 1200 nM | 1200 nM | 40000 nM | 1200 nM | 1200 nM | – | – | – | > 10000 nM | 1300 nM | 600 nM | –
CC(C)n1ncc2c(C(=O)Nc3ccncn3)cc(-c3ccsc3)nc21 [JX-059] | > 10000 nM | 1200 nM | 1200 nM | – | 870 ± 310 nM | 570 ± 220 nM | > 200000 nM | 800 nM | 1200 nM | > 200000 nM | 1200 nM | 1200 nM | 75000 nM | 690 ± 90 nM | – | > 10000 nM | 1200 nM | 400 nM | –
CC(C)n1ncc2c(C(=O)Nc3cccc(C(N)=O)c3)cc(-c3cccs3)nc21 [JX-064] | 6250 nM | 600 nM | 700 ± 100 nM | 600 nM | 170 nM | 50 nM | 20000 nM | 500 nM | 600 nM | 18000 nM | 600 nM | 600 nM | 25000 nM | – | – | 6250 nM | – | 200 nM | –
CC(C)n1ncc2c(C(=O)Nc3cncnc3)cc(-c3cccs3)nc21 [JX-066] | > 10000 nM | 500 nM | 700 ± 200 nM | 400 nM | 150 nM | 50 ± 10 nM | 20000 nM | 400 nM | 500 nM | 18000 nM | 500 nM | 500 nM | 25000 nM | 60 ± 20 nM | – | > 10000 nM | – | 200 nM | –
CC(C)n1ncc2c(C(=O)Nc3cc(S(N)(=O)=O)ccc3F)cc(-c3cccs3)nc21 [JX-068] | 6250 nM | 500 nM | 600 nM | 600 nM | 110 ± 10 nM | 50 ± 10 nM | 25000 nM | 500 nM | 600 nM | 18000 nM | 500 nM | 500 nM | 25000 nM | 50 nM | – | 6250 nM | – | 200 nM | –
CC(C)n1ncc2c(C(=O)Nc3ccccn3)cc(-c3ccccc3)nc21 [JX-070] | > 10000 nM | – | 1600 nM | – | 700 nM | – | 12500 nM | 700 nM | 1200 nM | 18800 nM | 1600 nM | – | 12500 nM | 350 nM | – | > 10000 nM | – | – | 2300 nM
CC(C)n1ncc2c(C(=O)Nc3ccccn3)cc(C3CC3)nc21 [JX-071] | > 10000 nM | – | 4700 nM | – | 2300 nM | – | 25000 nM | 4700 nM | 4700 nM | 25000 nM | 6250 nM | – | 37000 nM | 1200 nM | – | > 10000 nM | – | – | 9400 nM
CC(C)n1ncc2c(C(=O)Nc3cc(C(N)=O)ccc3F)cc(-c3cccs3)nc21 [JX-073] | 5000 nM | – | 800 nM | – | < 400 nM | – | 25000 nM | 500 nM | 600 nM | 18800 nM | 1200 nM | – | 25000 nM | < 400 nM | – | 5000 nM and 6300 nM | – | – | 1200 nM
CC(C)n1ncc2c(C(=O)N3CCc4cccnc43)cc(-c3cccs3)nc21 [JX-076] | > 10000 nM | – | 9400 nM | – | 4700 nM | 4000 nM | 50000 nM | 12500 nM | – | 37500 nM | – | – | 45000 nM | 4000 nM | – | > 10000 nM | – | – | –
